Source: US20240018161A1, “MODULATORS OF CYSTIC FIBROSIS TRANSMEMBRANE CONDUCTANCE REGULATOR” (VERTEX PHARMACEUTICALS INCORPORATED, priority 2020, published 2024)

Legend:
[1] = target: T1, CFTR-mediated chloride transport in human intestinal epithelial enteroid cells (Homo sapiens, UniProt P13569); test: Membrane potential dye, Enteroid Assay B; format: cell-based; settings: Enteroid Assay B; for EC50: read-out: Ent. B EC50
Experimental: Base medium (ADF+++) consisted of Advanced DMEM/Ham's F12, 2 mM Glutamax, 10 mM HEPES, […] penicillin/streptomycin.
Bath 1 Buffer consisted of 1 mM MgCl2, 160 mM NaCl, 4.5 mM KCl, 10 mM HEPES, 10 mM Glucose, 2 mM CaCl2.
Chloride Free Buffer consisted of 1 mM Magnesium Gluconate, 2 mM Calcium Gluconate, 4.5 mM Potassium Gluconate, 160 mM Sodium Gluconate, 10 mM HEPES, 10 mM Glucose.
Bath1 Dye Solution consisted of Bath 1 Buffer, 0.04% Pluronic F127, 20 μM Methyl Oxonol, 30 μM CaCCinh-A01, 30 μM Chicago Sky Blue.
Chloride Free Dye Solution consisted of Chloride Free Buffer, 0.04% Pluronic F127, 20 μM Methyl Oxonol, 30 μM CaCCinh-A01, 30 μM Chicago Sky Blue.
3. Enteroid Cell Harvesting and Seeding
Cells were recovered in cell recovery solution, collected by centrifugation at 650 rpm for 5 min at 4° C., resuspended in TryPLE and incubated for 5 min at 37° C. Cells were then collected by centrifugation at 650 rpm for 5 min at 4° C. and resuspended in IEMM containing 10 μM ROCK inhibitor (RI).
5. Membrane Potential Dye, Enteroid Assay B
Briefly, cells were washed 5 times in Bath 1 Buffer. Bath 1 Dye Solution was added and the cells were incubated for 25 min at room temperature. Following dye incubation, cells were washed 3 times in Chloride Free Dye Solution. Chloride transport was initiated by addition of Chloride Free Dye Stimulation Solution and the fluorescence signal was read for 15 min.

[2] = target: T1, CFTR-mediated chloride transport in human intestinal epithelial enteroid cells; test: Membrane potential dye, Enteroid Assay A; format: cell-based; settings: Enteroid Assay A; for EC50: read-out: Ent. A EC50
In short: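 Membrane potential dye (20 μM methyl oxonol, with 30 μM CaCCinh-A01 and 30 μM Chicago Sky Blue) loaded 25 min at room temperature into ROCK-inhibitor-seeded human enteroid cells. Chloride-free stimulation buffer triggered transport, followed by 15 min fluorescence. % Activity relative to 3 μM/3 μM/300 nM triple-combination control.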

T1 sequence (P13569 with tags, fused parts or gaps DEL508-508): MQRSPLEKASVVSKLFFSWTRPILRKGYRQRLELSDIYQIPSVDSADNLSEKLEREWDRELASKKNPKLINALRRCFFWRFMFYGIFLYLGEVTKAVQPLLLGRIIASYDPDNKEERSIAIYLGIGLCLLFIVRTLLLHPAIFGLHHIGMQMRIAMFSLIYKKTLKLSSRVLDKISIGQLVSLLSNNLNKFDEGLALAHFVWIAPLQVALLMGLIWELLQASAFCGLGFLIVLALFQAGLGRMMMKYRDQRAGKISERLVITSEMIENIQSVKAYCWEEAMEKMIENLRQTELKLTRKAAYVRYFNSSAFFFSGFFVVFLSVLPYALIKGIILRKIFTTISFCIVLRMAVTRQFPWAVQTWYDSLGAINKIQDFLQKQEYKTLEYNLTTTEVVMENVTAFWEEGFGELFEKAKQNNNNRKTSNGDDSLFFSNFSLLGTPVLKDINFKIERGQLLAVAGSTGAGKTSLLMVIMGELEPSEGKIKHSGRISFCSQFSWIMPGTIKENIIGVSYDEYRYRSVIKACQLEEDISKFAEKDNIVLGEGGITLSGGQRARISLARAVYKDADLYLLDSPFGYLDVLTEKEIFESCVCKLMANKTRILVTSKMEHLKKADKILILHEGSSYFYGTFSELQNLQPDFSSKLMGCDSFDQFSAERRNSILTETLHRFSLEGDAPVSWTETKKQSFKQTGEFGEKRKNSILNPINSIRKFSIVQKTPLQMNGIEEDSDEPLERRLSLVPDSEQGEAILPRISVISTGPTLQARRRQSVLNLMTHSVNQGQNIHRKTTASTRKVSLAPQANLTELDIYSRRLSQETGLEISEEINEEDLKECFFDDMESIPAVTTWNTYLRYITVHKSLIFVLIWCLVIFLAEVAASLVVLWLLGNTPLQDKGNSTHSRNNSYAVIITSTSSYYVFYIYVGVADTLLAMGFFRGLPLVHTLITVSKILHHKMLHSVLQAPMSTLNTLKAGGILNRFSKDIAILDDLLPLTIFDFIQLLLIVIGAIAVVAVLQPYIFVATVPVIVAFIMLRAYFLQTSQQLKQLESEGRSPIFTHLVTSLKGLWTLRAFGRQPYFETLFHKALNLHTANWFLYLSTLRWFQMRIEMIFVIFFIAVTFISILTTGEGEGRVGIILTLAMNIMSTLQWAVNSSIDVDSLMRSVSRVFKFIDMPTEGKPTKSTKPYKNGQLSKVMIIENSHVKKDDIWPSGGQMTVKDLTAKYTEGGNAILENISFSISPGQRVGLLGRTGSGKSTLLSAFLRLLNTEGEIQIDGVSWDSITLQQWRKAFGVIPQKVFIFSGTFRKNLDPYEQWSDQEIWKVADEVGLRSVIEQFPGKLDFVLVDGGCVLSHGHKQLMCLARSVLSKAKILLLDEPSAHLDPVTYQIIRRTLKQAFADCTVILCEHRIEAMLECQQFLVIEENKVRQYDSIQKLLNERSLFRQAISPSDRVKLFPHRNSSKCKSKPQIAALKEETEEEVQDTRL

| SMILES | Ent. B Max Activity (%) [1] | EC50 [1] | Ent. A Max Activity (%) [2] | EC50 [2] |
| --- | --- | --- | --- | --- |
| Cc1cccc(C)c1-c1cc2nc(n1)NS(=O)(=O)c1cccc(c1)C(=O)N1C[C@@H](CN(C(=O)OC(C)(C)C)C[C@@H]1CCO)O2 (single isomer, unassigned) [Compound 137, tert-butyl 12-(2,6-dimethylphenyl)-20-(2-hydroxyethyl)-2,8,8-trioxo-15-oxa-8λ^6-thia-1,9,11,18,22-pentaazatetracyclo[14.4.1.13,7.110,14]tricosa-3(23),4,6,10(22),11,13-hexaene-18-carboxylate] | +++ (+++ is >600%) | 1 to 3 µM | – | – |
| Cc1cccc(C)c1-c1cc2nc(n1)NS(=O)(=O)c1cccc(c1)C(=O)N1C[C@@H](CCC[C@@H]1CC(C)C)O2 (single isomer, unassigned) [Compound 179] | + (+ is <30%) | – | – | – |
| Cc1cccc(C)c1-c1cc2nc(n1)NS(=O)(=O)c1cccc(c1)C(=O)N1C[C@@H](CCC[C@@H]1CC(C)C)O2 (single isomer, unassigned) [Compound 180] | ++ (++ is 30-60%) | < 1 µM | – | – |
| Cc1cccc(C)c1-c1cc2nc(n1)NS(=O)(=O)c1cccc(c1)C(=O)N1Cc3cc(C(C)(C)C)ccc3C(C1)O2 (single isomer, unassigned) [Compound 183, 20-tert-butyl-12-(2,6-dimethylphenyl)-15-oxa-8λ^6-thia-1,9,11,25-tetraazapentacyclo[14.7.1.13,7.110,14.017,22]hexacosa-3,5,7(26),10,12,14(25),17,19,21-nonaene-2,8,8-trione] | +++ (+++ is >600%) | < 1 µM | +++ (+++ is >600%) | < 1 µM |
| Cc1cccc(C)c1-c1cc2nc(n1)NS(=O)(=O)c1cccc(c1)C(=O)N1C[C@H](O2)c2ccccc2[C@@H]1CC(C)C (single isomer, unassigned) [Compound 190, 12-(2,6-Dimethylphenyl)-23-(2-methylpropyl)-15-oxa-8λ^6-thia-1,9,11,25-tetraazapentacyclo[14.7.1.13,7.110,14.017,22]hexacosa-3(26),4,6,10(25),11,13,17,19,21-nonaene-2,8,8-trione] | ++ (++ is 30-60%) | < 1 µM | – | – |
| Cc1cccc(C)c1-c1cc2nc(n1)NS(=O)(=O)c1cccc(c1)C(=O)N1C[C@H](O2)c2ccccc2[C@@H]1CC(C)C (single isomer, unassigned) [Compound 191, 12-(2,6-Dimethylphenyl)-23-(2-methylpropyl)-15-oxa-8λ^6-thia-1,9,11,25-tetraazapentacyclo[14.7.1.13,7.110,14.017,22]hexacosa-3(26),4,6,10(25),11,13,17,19,21-nonaene-2,8,8-trione] | ++ (++ is 30-60%) | < 1 µM | – | – |
| Cc1cccc(C)c1-c1cc2nc(n1)NS(=O)(=O)c1cccc(c1)C(=O)N1Cc3cc(C(C)(C)C)ccc3C(CO2)C1C (single isomer, unassigned) [Compound 218, 21-tert-Butyl-12-(2,6-dimethylphenyl)-25-methyl-15-oxa-8λ^6-thia-1,9,11,26-tetraazapentacyclo[15.7.1.13,7.110,14.018,23]heptacosa-3,5,7(27),10,12,14(26),18,20,22-nonaene-2,8,8-trione] | + (+ is <30%) | – | – | – |
| Cc1cccc(C)c1-c1cc2nc(n1)NS(=O)(=O)c1cccc(c1)C(=O)N1Cc3cc(C(C)(C)C)ccc3C(CO2)C1C (single isomer, unassigned) [Compound 219, 21-tert-butyl-12-(2,6-dimethylphenyl)-25-methyl-15-oxa-8λ^6-thia-1,9,11,26-tetraazapentacyclo[15.7.1.13,7.110,14.018,23]heptacosa-3,5,7(27),10,12,14(26),18,20,22-nonaene-2,8,8-trione] | +++ (+++ is >600%) | < 1 µM | – | – |
| Cc1cccc(C)c1-c1cc2nc(n1)NS(=O)(=O)c1cccc(c1)C(=O)N1CCc3cc(C(C)(C)C)ccc3[C@H]1CO2 (single isomer, unassigned) [Compound 236, 8-tert-Butyl-17-(2,6-dimethylphenyl)-14-oxa-21λ^6-thia-3,18,20,27-tetraazapentacyclo[20.3.1.115,19.03,12.06,11]heptacosa-1(26),6(11),7,9,15(27),16,18,22,24-nonaene-2,21,21-trione] | +++ (+++ is >600%) | < 1 µM | – | – |
| Cc1cccc(C)c1-c1cc2nc(n1)NS(=N)(=O)c1cccc(c1)C(=O)N1CCN(CCC(C)(C)C)C[C@H](C1)O2 (single isomer, unassigned) [Compound 245, 18-(3,3-dimethylbutyl)-12-(2,6-dimethylphenyl)-8-imino-15-oxa-8λ^6-thia-1,9,11,18,22-pentaazatetracyclo[14.4.1.13,7.110,14]tricosa-3,5,7(23),10,12,14(22)-hexaene-2,8-dione] | +++ (+++ is >600%) | < 1 µM | ++ (++ is 30-60%) | < 1 µM |
| Cc1cccc(C)c1-c1cc2nc(n1)NS(=O)(=O)c1cccc(c1)C(=O)N1Cc3cc(C(C)(C)C)ccc3C(O2)[C@H]1CC(C)(C)C (stereo in doubt) [Compound 188, (16S,24R)-20-tert-Butyl-12-(2,6-dimethylphenyl)-24-(2,2-dimethylpropyl)-15-oxa-8λ^6-thia-1,9,11,25-tetraazapentacyclo[14.7.1.13,7.110,14.017,22]hexacosa-3(26),4,6,10(25),11,13,17,19,21-nonaene-2,8,8-trione] | +++ (+++ is >600%) | < 1 µM | +++ (+++ is >600%) | < 1 µM |
| Cc1cccc(C)c1-c1cc2nc(n1)NS(=O)(=O)c1cccc(c1)C(=O)N1CCN[C@H](CC(C)C)[C@H](C1)O2 [Compound 118, (16S,17R)-12-(2,6-Dimethylphenyl)-17-(2-methylpropyl)-15-oxa-8λ^6-thia-1,9,11,18,22-pentaazatetracyclo[14.4.1.13,7.110,14]tricosa-3(23),4,6,10(22),11,13-hexaene-2,8,8-trione] | +++ (+++ is >600%) | < 1 µM | – | – |
| Cc1cccc(C)c1-c1cc2nc(n1)NS(=O)(=O)c1cccc(c1)C(=O)N1CCN(C3CC4(CCCC4)C3)[C@H](CC(C)C)[C@H](C1)O2 [Compound 119, (16S,17R)-12-(2,6-dimethylphenyl)-17-(2-methylpropyl)-18-{spiro[3.4]octan-2-yl}-15-oxa-8λ^6-thia-1,9,11,18,22-pentaazatetracyclo[14.4.1.13,7.110,14]tricosa-3(23),4,6,10(22),11,13-hexaene-2,8,8-trione] | +++ (+++ is >600%) | < 1 µM | – | – |
| Cc1cccc(C)c1-c1cc2nc(n1)NS(=O)(=O)c1cccc(c1)C(=O)N1CCN(C3CC4(CCCCC4)C3)[C@H](CC(C)C)[C@H](C1)O2 [Compound 120, (16S,17R)-12-(2,6-dimethylphenyl)-17-(2-methylpropyl)-18-{spiro[3.5]nonan-2-yl}-15-oxa-8λ^6-thia-1,9,11,18,22-pentaazatetracyclo[14.4.1.13,7.110,14]tricosa-3(23),4,6,10(22),11,13-hexaene-2,8,8-trione] | +++ (+++ is >600%) | < 1 µM | – | – |
| Cc1cccc(C)c1-c1cc2nc(n1)NS(=O)(=O)c1cccc(c1)C(=O)N1CCN(C)[C@H](CC(C)C)[C@H](C1)O2 [Compound 121, (16S,17R)-12-(2,6-Dimethylphenyl)-18-methyl-17-(2-methylpropyl)-15-oxa-8λ^6-thia-1,9,11,18,22-pentaazatetracyclo[14.4.1.13,7.110,14]tricosa-3(23),4,6,10(22),11,13-hexaene-2,8,8-trione] | +++ (+++ is >600%) | < 1 µM | – | – |
| Cc1cccc(C)c1-c1cc2nc(n1)NS(=O)(=O)c1cccc(c1)C(=O)N1CCN(C(=O)CC(C)(C)C)[C@H](CC(C)C)[C@H](C1)O2 [Compound 122, (16S,17R)-18-(3,3-Dimethylbutanoyl)-12-(2,6-dimethylphenyl)-17-(2-methylpropyl)-15-oxa-8λ^6-thia-1,9,11,18,22-pentaazatetracyclo[14.4.1.13,7.110,14]tricosa-3(23),4,6,10(22),11,13-hexaene-2,8,8-trione] | +++ (+++ is >600%) | < 1 µM | – | – |
| Cc1cccc(C)c1-c1cc2nc(n1)NS(=O)(=O)c1cccc(c1)C(=O)N1CCc3cc(C(C)(C)C)ccc3[C@@H](O2)[C@H]1CC(C)C [Compound 329] | +++ (+++ is >600%) | < 1 µM | – | – |
